Test [1] relates to CAL-120, human breast adenocarcinoma cells. Kind of test: Proliferation assay CAL-120 (crystal violet, 4 days). The following applies: Homo sapiens, CAL-120, 96 h, CAL-120 cells, median, read-out: Prolif-CAL-120, IC50-[mol/l] (median). In kind it is cell-based. The method, boiled down: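 Crystal violet proliferation read-out after 4 days of compound exposure (0.01-10 µmol/L; solvent 0.1% DMSO). Extinction at 595 nm, set between zero-point (0%) and vehicle (100%), fitted with 4 parameters to give IC50.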

Test [2] has as its target T1, CYCLIN K (nuclear staining in CAL-120 cells) (Homo sapiens, UniProt O75909).
T1 construct: endogenous in cells; host or cells: CAL-120 human breast cancer cells (DSMZ ACC 459)
The experiment in a line: CYCLIN K nuclear protein level: immunofluorescence high content analysis (CAL-120). The following applies: 24 h, 50% reduction of nuclear CCNK staining intensity, median, read-out: CYCLIN K degradation IF, DC50-[mol/l] (median). In kind it is cell-based. In outline: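 Readout is automated confocal image analysis of nuclear cyclin K immunofluorescence (Hoechst nuclei) after PFA fixation. Cells were CAL-120, exposed to compound dose-response 24 h at 37 °C; values are DC50 for halving nuclear CCNK signal relative to DMSO and control wells.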

The target of a further test is CDK12/CycK (Homo sapiens, UniProt Q9NYV4). The experiment in a line: CDK12/CycK high ATP kinase assay (TR-FRET, 2 mM ATP). The test is classed as biochemical. As to conditions: 2 mM ATP (high ATP); median; read-out: CDK12/CyclinK, 2 mM ATP (high ATP), IC50-[mol/l] (median). In outline:
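Read-out is TR-FRET (Eu-anti-rabbit IgG, anti-phospho-c-Myc Ser62 antibody, streptavidin-XL665) after EDTA stop. Reaction ran 60 min at 22 °C using 1 µM biotin-peptide and high ATP (2 mM) with roughly 0.75 nM recombinant CDK12/CycK, after 15 min compound pre-binding; normalised emission ratios yield IC50.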

Sequence of CDK12/CycK (Q9NYV4 with tags, fused parts or gaps): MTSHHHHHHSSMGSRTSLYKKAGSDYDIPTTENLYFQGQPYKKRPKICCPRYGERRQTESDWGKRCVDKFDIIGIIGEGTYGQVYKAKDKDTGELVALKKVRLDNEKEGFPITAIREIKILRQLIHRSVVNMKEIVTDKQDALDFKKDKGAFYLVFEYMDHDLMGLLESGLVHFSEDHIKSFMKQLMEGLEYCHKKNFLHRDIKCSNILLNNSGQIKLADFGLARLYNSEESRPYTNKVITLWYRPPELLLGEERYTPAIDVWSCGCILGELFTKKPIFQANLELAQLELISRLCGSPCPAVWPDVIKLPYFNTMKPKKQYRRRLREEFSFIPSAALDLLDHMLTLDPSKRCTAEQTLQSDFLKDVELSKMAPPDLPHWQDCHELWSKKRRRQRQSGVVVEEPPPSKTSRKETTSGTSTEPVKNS
Sequence of CDK12/CycK (O75909 1-300 partner limits assumed): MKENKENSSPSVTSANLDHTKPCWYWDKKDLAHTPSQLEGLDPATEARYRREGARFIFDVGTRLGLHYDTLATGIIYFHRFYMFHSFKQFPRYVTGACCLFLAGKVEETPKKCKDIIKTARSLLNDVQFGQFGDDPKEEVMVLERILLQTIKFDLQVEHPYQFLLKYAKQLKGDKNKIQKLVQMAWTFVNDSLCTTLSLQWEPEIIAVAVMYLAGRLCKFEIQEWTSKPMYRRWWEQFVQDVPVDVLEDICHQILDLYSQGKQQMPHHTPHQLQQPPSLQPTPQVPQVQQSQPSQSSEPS
T1 sequence (O75909 whole entry): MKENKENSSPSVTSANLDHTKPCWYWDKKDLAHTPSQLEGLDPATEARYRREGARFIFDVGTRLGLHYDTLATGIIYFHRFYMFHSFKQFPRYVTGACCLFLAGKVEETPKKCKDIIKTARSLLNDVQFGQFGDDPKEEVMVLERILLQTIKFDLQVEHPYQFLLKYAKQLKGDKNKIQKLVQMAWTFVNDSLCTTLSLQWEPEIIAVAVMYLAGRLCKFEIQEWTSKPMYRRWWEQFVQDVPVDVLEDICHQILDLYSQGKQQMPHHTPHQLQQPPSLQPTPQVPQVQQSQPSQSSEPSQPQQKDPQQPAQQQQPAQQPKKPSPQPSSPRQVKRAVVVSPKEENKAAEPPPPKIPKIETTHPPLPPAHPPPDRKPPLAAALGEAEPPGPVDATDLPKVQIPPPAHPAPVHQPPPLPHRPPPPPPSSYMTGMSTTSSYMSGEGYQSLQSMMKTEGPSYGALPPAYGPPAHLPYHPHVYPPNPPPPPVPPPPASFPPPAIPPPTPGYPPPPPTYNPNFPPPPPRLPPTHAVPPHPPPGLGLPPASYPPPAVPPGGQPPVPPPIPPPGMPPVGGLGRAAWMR
T1 sequence (Q9NYV4 whole entry partner): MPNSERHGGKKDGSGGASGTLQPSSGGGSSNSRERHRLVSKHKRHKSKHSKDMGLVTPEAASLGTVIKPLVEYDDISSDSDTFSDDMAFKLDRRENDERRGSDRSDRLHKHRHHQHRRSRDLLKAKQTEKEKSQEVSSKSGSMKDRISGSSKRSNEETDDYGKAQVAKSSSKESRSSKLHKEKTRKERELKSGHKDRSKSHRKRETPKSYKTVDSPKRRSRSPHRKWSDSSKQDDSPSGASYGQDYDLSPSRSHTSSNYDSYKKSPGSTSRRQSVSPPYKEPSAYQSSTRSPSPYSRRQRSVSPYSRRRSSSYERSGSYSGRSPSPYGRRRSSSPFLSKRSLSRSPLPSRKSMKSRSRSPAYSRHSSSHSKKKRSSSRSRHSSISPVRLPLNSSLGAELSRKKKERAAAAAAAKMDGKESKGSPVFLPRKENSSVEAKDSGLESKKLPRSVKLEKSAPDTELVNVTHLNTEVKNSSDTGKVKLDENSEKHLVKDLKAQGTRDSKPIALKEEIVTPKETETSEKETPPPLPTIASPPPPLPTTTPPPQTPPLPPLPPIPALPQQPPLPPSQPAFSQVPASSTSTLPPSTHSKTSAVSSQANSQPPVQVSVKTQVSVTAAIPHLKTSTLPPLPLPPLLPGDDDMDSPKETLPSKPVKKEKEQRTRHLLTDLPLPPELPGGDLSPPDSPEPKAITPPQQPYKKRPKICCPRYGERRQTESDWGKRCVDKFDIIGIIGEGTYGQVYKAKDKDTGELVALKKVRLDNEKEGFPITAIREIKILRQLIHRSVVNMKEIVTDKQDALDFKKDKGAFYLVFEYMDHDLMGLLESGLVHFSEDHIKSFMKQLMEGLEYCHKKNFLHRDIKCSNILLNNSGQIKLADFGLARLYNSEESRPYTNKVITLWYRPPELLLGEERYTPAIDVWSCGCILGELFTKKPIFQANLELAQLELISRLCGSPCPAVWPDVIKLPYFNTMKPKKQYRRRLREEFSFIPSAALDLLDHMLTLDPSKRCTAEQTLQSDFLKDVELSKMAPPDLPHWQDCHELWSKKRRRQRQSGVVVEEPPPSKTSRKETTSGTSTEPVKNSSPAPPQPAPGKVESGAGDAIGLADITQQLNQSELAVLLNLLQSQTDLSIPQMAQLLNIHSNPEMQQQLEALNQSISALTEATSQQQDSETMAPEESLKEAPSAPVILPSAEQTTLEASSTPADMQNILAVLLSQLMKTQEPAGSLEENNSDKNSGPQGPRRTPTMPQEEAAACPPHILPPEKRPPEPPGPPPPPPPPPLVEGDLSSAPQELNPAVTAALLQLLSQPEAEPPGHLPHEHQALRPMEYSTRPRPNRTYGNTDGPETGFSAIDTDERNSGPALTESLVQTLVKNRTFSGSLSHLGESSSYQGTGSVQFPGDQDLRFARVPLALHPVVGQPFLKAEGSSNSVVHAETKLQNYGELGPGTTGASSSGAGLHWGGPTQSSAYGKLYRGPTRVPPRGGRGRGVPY

As to `Fc1ccc2[nH]c(CNc3nc(N4CCOCC4)nc4c(C5CC5)cnn34)nc2c1F` [Example 172, 8-cyclopropyl-N-[(4,5-difluoro-1H-benzimidazol-2-yl)methyl]-2-(morpholin-4-yl)pyrazolo[1,5-a][1,3,5]triazin-4-amine], the IC50 is 2.43 nM in test [1] and 0.641 µM at CDK12/CycK. Also, the DC50 in test [2] came out at 0.894 nM.

On to `Brc1cnn2c(NCc3nc4ccccc4[nH]3)nc(N3CCNC4(CC4)C3)nc12` [Example 176, N-[(1H-benzimidazol-2-yl)methyl]-8-bromo-2-(4,7-diazaspiro[2.5]octan-7-yl)pyrazolo[1,5-a][1,3,5]triazin-4-amine], for which the IC50 was found to be 4.37 nM in test [1] and 2.33 µM on CDK12/CycK. Besides, the DC50 in test [2] was 0.208 nM.

`CO[C@H]1CCN(c2nc(NCc3nc4ccccc4[nH]3)n3ncc(Br)c3n2)C1` [Example 222, N-[(1H-benzimidazol-2-yl)methyl]-8-bromo-2-[(3S)-3-methoxypyrrolidin-1-yl]pyrazolo[1,5-a][1,3,5]triazin-4-amine]: the results for the IC50 (in test [1]; at CDK12/CycK) were 107 nM and 6.01 µM, respectively. In test [2], the DC50 worked out at 3.05 nM.

On to `C[C@@H]1CN(c2nc(NCc3nc4c(F)cccc4[nH]3)n3ncc(C4CC4)c3n2)C[C@H](C)N1` [Example 186, 8-cyclopropyl-2-[(3R,5S)-3,5-dimethylpiperazin-1-yl]-N-[(4-fluoro-1H-benzimidazol-2-yl)methyl]pyrazolo[1,5-a][1,3,5]triazin-4-amine], for which the IC50 in test [1] came out at 4.2 nM; on CDK12/CycK, 2.72 µM. Moreover, in test [2], the DC50 was 0.16 nM.

Turning to `OC[C@@H]1CCCCN1c1nc(NCc2nc3c(F)cccc3[nH]2)n2ncc(C3CC3)c2n1` [Example 189, [(2S)-1-(8-cyclopropyl-4-{[(4-fluoro-1H-benzimidazol-2-yl)methyl]amino}pyrazolo[1,5-a][1,3,5]triazin-2-yl)piperidin-2-yl]methanol], the results for the IC50 (in test [1]; on CDK12/CycK) were 4.67 nM and 0.0109 µM, respectively. The DC50 in test [2] worked out at 0.318 nM.

On to `OC[C@@H]1CCCCN1c1nc(NCc2nc3c(F)c(F)ccc3[nH]2)n2ncc(C3CC3)c2n1` [Example 184, [(2S)-1-(8-cyclopropyl-4-{[(4,5-difluoro-1H-benzimidazol-2-yl)methyl]amino}pyrazolo[1,5-a][1,3,5]triazin-2-yl)piperidin-2-yl]methanol], for which the IC50 is 9.27 nM in test [1] and 0.0132 µM on CDK12/CycK. In test [2], the DC50 was 0.929 nM.

Regarding `Fc1ccc2[nH]c(CNc3nc(N4CCNCC4)nc4c(C5CC5)cnn34)nc2c1F` [Example 174, 8-cyclopropyl-N-[(4,5-difluoro-1H-benzimidazol-2-yl)methyl]-2-(piperazin-1-yl)pyrazolo[1,5-a][1,3,5]triazin-4-amine], the IC50 was found to be 1 nM in test [1] and 1.19 µM at CDK12/CycK. Further, in test [2], the DC50 came out at 0.0976 nM.

In the case of `CC(C)(O)CNc1nc(NCc2nc3ccccc3[nH]2)n2ncc(Br)c2n1` [Example 229, 1-[(4-{[(1H-benzimidazol-2-yl)methyl]amino}-8-bromopyrazolo[1,5-a][1,3,5]triazin-2-yl)amino]-2-methylpropan-2-ol], the IC50 amounted to 39.4 nM in test [1] and 5.51 µM at CDK12/CycK. The DC50 in test [2] turned out to be 0.39 nM.

As to `Fc1ccc2[nH]c(CNc3nc(N4C[C@@H]5C[C@H]4CO5)nc4c(C5CC5)cnn34)nc2c1` [Example 185, 8-cyclopropyl-N-[(5-fluoro-1H-benzimidazol-2-yl)methyl]-2-[(1S,4S)-2-oxa-5-azabicyclo[2.2.1]heptan-5-yl]pyrazolo[1,5-a][1,3,5]triazin-4-amine], the IC50 in test [1] is 18.6 nM; at CDK12/CycK, above 19.6 µM. Further, in test [2], the DC50 was found to be 2 nM.

With `Cc1ccc2[nH]c(CNc3nc(N4C[C@H]5C[C@@H]4CO5)nc4c(Br)cnn34)nc2c1` [Example 192, 8-bromo-N-[(5-methyl-1H-benzimidazol-2-yl)methyl]-2-[(1R,4R)-2-oxa-5-azabicyclo[2.2.1]heptan-5-yl]pyrazolo[1,5-a][1,3,5]triazin-4-amine], the IC50 in test [1] came to 3.08 nM; at CDK12/CycK, 8.5 µM. For the same molecule, in test [2], the DC50 turned out to be 0.589 nM.

`Fc1cccc2[nH]c(CNc3nc(N4C[C@@H]5CCCN[C@@H]5C4)nc4c(C5CC5)cnn34)nc12` [Example 187, 8-cyclopropyl-N-[(4-fluoro-1H-benzimidazol-2-yl)methyl]-2-[(4aS,7aS)-octahydro-6H-pyrrolo[3,4-b]pyridin-6-yl]pyrazolo[1,5-a][1,3,5]triazin-4-amine]: the IC50 in test [1] amounted to 1.1 nM; on CDK12/CycK, 6.5 µM. The DC50 in test [2] worked out at 0.369 nM.

Take `CCNc1nc(NCc2nc3ccccc3[nH]2)n2ncc(Br)c2n1` [Example 227, N4-(1H-benzimidazol-2-ylmethyl)-8-bromo-N2-ethyl-pyrazolo[1,5-a][1,3,5]triazine-2,4-diamine]: the IC50 in test [1] amounted to 44.2 nM; on CDK12/CycK, 9.51 µM. In addition, in test [2], the DC50 was determined as 2.7 nM.

As for `CN1C[C@@H]2C[C@H]1CN2c1nc(NCc2nc3ccccc3[nH]2)n2ncc(Br)c2n1` [Example 219, N-[(1H-benzimidazol-2-yl)methyl]-8-bromo-2-[(1S,4S)-5-methyl-2,5-diazabicyclo[2.2.1]heptan-2-yl]pyrazolo[1,5-a][1,3,5]triazin-4-amine], the IC50 in test [1] is 27.2 nM; on CDK12/CycK, above 20 µM. Further, the DC50 in test [2] was 1.23 nM.

The record behind these values is patent US20230117034A1, “PYRAZOLOTRIAZINES” (Bayer Aktiengesellschaft, priority 2019, published 2023).
